Laboratory results published in publication PMC6631481, “De Novo Design and In Vitro Testing of Antimicrobial Peptides against Gram-Negative Bacteria” (Pharmaceuticals, 2019).
Values after ≈ are worked out from the molar mass of the structure shown. Read-outs that look alike come from different tables or passages of the source. Non-standard residues stand in square brackets, D forms with d. Residues, ends and D or L forms follow the SMILES beside them. No end group written: not given here.

Columns and labels:
Format in all cases: cell-based
[1] = test system: Escherichia coli ATCC 25922
Experimental: The MICs of the designed cationic peptides against Escherichia coli ATCC 25,922 strains were determined by the broth microdilution method, as described by Hancock et al.. All MIC evaluations were performed using Luria Bertani (LB) medium. Briefly, a range of each peptide concentrations (100 µg/mL, 50 µg/mL, 25 µg/mL, 12.5 µg/mL, 6.25 µg/mL, 3.125 µg/mL) was prepared by serial dilution in NaCl-depleted LB medium and added to an equal volume (250 µl) of exponentially grown bacterial culture, so that final bacterial suspension contained 5 × 10^5 CFU/mL. The samples were incubated in 2 mL polypropylene microtubes at 37 °C overnight at 300 rpm. The MIC was defined as the concentration at which no microbial growth was detected spectrophotometrically, via readings of optical density (OD) at 600 nm (Biotek ELX800 microplate reader). Growth medium containing only bacterial cells was used as a negative control. Each MIC test was carried out in two replicates and repeated three times.

[2] = test system: E. asburiae/cloacae St. L P23; experiment: organism not typed
Excerpt: (§1) The following strains were used: P. aeruginosa (ATCC 27,853 and resistant strains: J4228 (R: Meropenem), BB2013-100 (FQR)); A. baumannii (Josh 28 and resistant strain Josh 230 (OXA-48); E. cloacae (resistant strains: BB2012-181(R: Meropenem), BB2013-32 (FQR)); E. aerogenes (resistant strain St. L P63 (NDM-1), E. asburiae/cloacae (resistant strain St. L P23 (NDM-1), K. pneumonia (J3702 and resistant strains: BB2009-209 (KPC-2), Oschner KP-1), Escherichia coli (BW25113 (7636) and resistant strains: JW55034 (11430) (Tol neg), BB2013-30 (R:carbapenem), ARLG-1012 (NDM)). Susceptibility testing was performed using non-cation adjusted MHB broth and polypropylene plates. Testing was also done in the presence and absence of acetic acid and BSA.

E. coli JW55034 (11430) = experiment: microbe, parasite or virus in culture; details: phenotype Tol neg, non-cation adjusted MHB broth, polypropylene plates, meropenem by standard CLSI method
Excerpt: as §1

E. coli BB2013-30 = experiment: microbe, parasite or virus in culture
Excerpt: as §1

K. pneumoniae J3702 = experiment: microbe, parasite or virus in culture
Excerpt: as §1

K. pneumoniae BB2009-209 = experiment: microbe, parasite or virus in culture
Excerpt: as §1

P. aeruginosa BB2013-100 = experiment: microbe, parasite or virus in culture
Excerpt: as §1

P. aeruginosa J4228 = experiment: microbe, parasite or virus in culture
Excerpt: as §1

E. coli ARLG-1012 = experiment: microbe, parasite or virus in culture
Excerpt: as §1

A. baumannii Josh 230 = experiment: microbe, parasite or virus in culture
Excerpt: as §1

A. baumannii Josh 28 = experiment: microbe, parasite or virus in culture
Excerpt: as §1

E. coli BW25113 (7636) = experiment: microbe, parasite or virus in culture
Excerpt: as §1

E. cloacae BB2013-32 = experiment: microbe, parasite or virus in culture
Excerpt: as §1

[3] = test system: K. pneumoniae Oschner KP-1; experiment: microbe, parasite or virus in culture
Excerpt: as §1

P. aeruginosa ATCC 27853 = experiment: microbe, parasite or virus in culture
Excerpt: as §1

E. aerogenes St. L P63 = experiment: microbe, parasite or virus in culture; details: Klebsiella aerogenes, ST.LP63; E. aerogenes St. L P63, phenotype NDM-1; non-cation adjusted MHB broth, polypropylene plates; meropenem by standard CLSI method; read-out: MIC
Excerpt: as §1

E. cloacae BB2012-181 = experiment: microbe, parasite or virus in culture; details: Enterobacter cloacae, BB2012181; E. cloacae BB2012-181, phenotype R: Meropenem; non-cation adjusted MHB broth, polypropylene plates; meropenem by standard CLSI method; read-out: MIC
Excerpt: as §1

## RLFIKKLKFITRR-NH2 [SP6]
[1]
  MIC At NaCl: 25 to 50 µg/mL
  MIC Without NaCl: 3.125 to 6.25 µg/mL

## NAMRGAKRVWRHI-NH2 [SP7]
[1]
  MIC At NaCl: >100 µg/mL
  MIC Without NaCl: 50 to 100 µg/mL

## RWIRWVWRKKLRI-NH2 [SP14]
[1]
  MIC At NaCl: 12.5 to 25 µg/mL
  MIC Without NaCl: 3.125 to 6.25 µg/mL

## AIKIRKLFKKLLR-NH2 [SP1]
[2]
  MIC: >32 µg/mL
E. coli JW55034 (11430)
  MIC: 8 µg/mL
E. coli BB2013-30; BB2013-30
  MIC: 16 µg/mL
K. pneumoniae J3702; J3702
  MIC: >32 µg/mL
K. pneumoniae BB2009-209; BB2009-209
  MIC: >32 µg/mL
P. aeruginosa BB2013-100; BB2013-100
  MIC: 32 µg/mL
P. aeruginosa J4228; J4228
  MIC: 8 µg/mL
E. coli ARLG-1012; ARLG-1012
  MIC: 8 µg/mL
A. baumannii Josh 230; Josh 230
  MIC: 16 µg/mL
A. baumannii Josh 28; Josh 28
  MIC: 4 µg/mL
E. coli BW25113 (7636); BW25113
  MIC: 8 µg/mL
E. cloacae BB2013-32; BB2013-32
  MIC: >32 µg/mL
[3]; Oschner KP-1
  MIC: >32 µg/mL
P. aeruginosa ATCC 27853; ATCC 27853
  MIC: 4 µg/mL
[1]
  MIC At NaCl: 12.5 to 25 µg/mL
  MIC Without NaCl: 3.125 to 6.25 µg/mL

## C[C@@H](O)[C@H]1C(=O)N2C(C(=O)O)=C(S[C@@H]3CN[C@H](C(=O)N(C)C)C3)[C@H](C)[C@H]12 [Meropenem, reference compound]
[2]; E. asburiae/cloacae St. L P23, phenotype NDM-1, non-cation adjusted MHB broth, polypropylene plates, meropenem by standard CLSI method, read-out: MIC
  MIC: 16 µg/mL (≈ 41.7 µM)
E. aerogenes St. L P63
  MIC: 16 µg/mL (≈ 41.7 µM)
E. coli JW55034 (11430); Escherichia coli, read-out: MIC
  MIC: ≤ 0.125 µg/mL
E. coli BB2013-30; Escherichia coli, BB201330, E. coli BB2013-30, phenotype R:carbapenem, non-cation adjusted MHB broth, polypropylene plates, meropenem by standard CLSI method, read-out: MIC
  MIC: 1 µg/mL (≈ 2.61 µM)
K. pneumoniae J3702; Klebsiella pneumoniae, K. pneumoniae J3702, phenotype Susceptible, non-cation adjusted MHB broth, polypropylene plates, meropenem by standard CLSI method, read-out: MIC
  MIC: ≤ 0.125 µg/mL
K. pneumoniae BB2009-209; Klebsiella pneumoniae, BB2009209, K. pneumoniae BB2009-209, phenotype KPC-2, non-cation adjusted MHB broth, polypropylene plates, meropenem by standard CLSI method, read-out: MIC
  MIC: 32 µg/mL (≈ 83.4 µM)
P. aeruginosa BB2013-100; Pseudomonas aeruginosa, BB2013100, P. aeruginosa BB2013-100, phenotype FQR, non-cation adjusted MHB broth, polypropylene plates, meropenem by standard CLSI method, read-out: MIC
  MIC: 1 µg/mL (≈ 2.61 µM)
P. aeruginosa J4228; Pseudomonas aeruginosa, P. aeruginosa J4228, phenotype R: Meropenem, non-cation adjusted MHB broth, polypropylene plates, meropenem by standard CLSI method, read-out: MIC
  MIC: > 64 µg/mL
E. coli ARLG-1012; Escherichia coli, ARLG1012, E. coli ARLG-1012, phenotype NDM, non-cation adjusted MHB broth, polypropylene plates, meropenem by standard CLSI method, read-out: MIC
  MIC: 64 µg/mL (≈ 167 µM)
A. baumannii Josh 230; Acinetobacter baumannii, JOSH230, A. baumannii Josh 230, phenotype OXA-48, non-cation adjusted MHB broth, polypropylene plates, meropenem by standard CLSI method, read-out: MIC
  MIC: 1 µg/mL (≈ 2.61 µM)
A. baumannii Josh 28; Acinetobacter baumannii, JOSH28, A. baumannii Josh 28, phenotype Susceptible, non-cation adjusted MHB broth, polypropylene plates, meropenem by standard CLSI method, read-out: MIC
  MIC: 32 µg/mL (≈ 83.4 µM)
E. coli BW25113 (7636); Escherichia coli, E. coli BW25113 (7636), phenotype WT, Tol parent strain, non-cation adjusted MHB broth, polypropylene plates, meropenem by standard CLSI method, read-out: MIC
  MIC: ≤ 0.125 µg/mL
E. cloacae BB2013-32; Enterobacter cloacae, BB201332, E. cloacae BB2013-32, phenotype FQR, non-cation adjusted MHB broth, polypropylene plates, meropenem by standard CLSI method, read-out: MIC
  MIC: 0.5 µg/mL (≈ 1.3 µM)
[3]; Klebsiella pneumoniae, K. pneumoniae Oschner KP-1, phenotype KPC-3, non-cation adjusted MHB broth, polypropylene plates, meropenem by standard CLSI method, read-out: MIC
  MIC: 16 µg/mL (≈ 41.7 µM)
P. aeruginosa ATCC 27853; Pseudomonas aeruginosa, ATCC27853, P. aeruginosa ATCC 27853, phenotype CLSI Control, non-cation adjusted MHB broth, polypropylene plates, meropenem by standard CLSI method, read-out: MIC
  MIC: 1 µg/mL (≈ 2.61 µM)
E. cloacae BB2012-181
  MIC: 16 µg/mL (≈ 41.7 µM)

## CC[C@@H](C)[C@@H](NC(=O)[C@@H](C)N)C(=O)N[C@H](CCCCN)C(=O)N[C@@H](C(=O)N[C@H](CCCNC(=N)N)C(=O)N[C@H](CCCCN)C(=O)N[C@H](CC(C)C)C(=O)N[C@H](Cc1ccccc1)C(=O)N[C@H](CCCCN)C(=O)N[C@H](CCCCN)C(=O)N[C@H](CC(C)C)C(=O)N[C@H](CC(C)C)C(=O)N[C@H](CCCNC(=N)N)C(N)=O)[C@H](C)CC [SP1D] (H-[dA][dI][dK][dI][dR][dK][dL][dF][dK][dK][dL][dL][dR]-NH2)
[1]
  MIC At NaCl: 12.5 to 25 µg/mL
  MIC Without NaCl: 3.125 to 6.25 µg/mL

## RWIRWVWRKKLR-NH2 [SP15]
[1]
  MIC At NaCl: 3.125 to 6.25 µg/mL
  MIC Without NaCl: 0.78 to 1.56 µg/mL

## IRRWRLHWFRRAI-NH2 [SP11]
[1]
  MIC At NaCl: 12.5 to 25 µg/mL
  MIC Without NaCl: 3.125 to 6.25 µg/mL

## GIKIRKLFKKLLR-NH2 [SP2]
[1]
  MIC At NaCl: 6.25 to 12.5 µg/mL
  MIC Without NaCl: 3.125 to 6.25 µg/mL
